Results as given in ChEMBL document CHEMBL3039007, “Structure-based identification of OATP1B1/3 inhibitors” (Mol Pharmacol, 2013).

Experiments:
[1] = biological target: T1, Solute carrier organic anion transporter family member 1B1 (Homo sapiens, UniProt Q9Y6L6); conditions: chinese hamster, cho, 10 µM
T1 sequence (Q9Y6L6 whole entry): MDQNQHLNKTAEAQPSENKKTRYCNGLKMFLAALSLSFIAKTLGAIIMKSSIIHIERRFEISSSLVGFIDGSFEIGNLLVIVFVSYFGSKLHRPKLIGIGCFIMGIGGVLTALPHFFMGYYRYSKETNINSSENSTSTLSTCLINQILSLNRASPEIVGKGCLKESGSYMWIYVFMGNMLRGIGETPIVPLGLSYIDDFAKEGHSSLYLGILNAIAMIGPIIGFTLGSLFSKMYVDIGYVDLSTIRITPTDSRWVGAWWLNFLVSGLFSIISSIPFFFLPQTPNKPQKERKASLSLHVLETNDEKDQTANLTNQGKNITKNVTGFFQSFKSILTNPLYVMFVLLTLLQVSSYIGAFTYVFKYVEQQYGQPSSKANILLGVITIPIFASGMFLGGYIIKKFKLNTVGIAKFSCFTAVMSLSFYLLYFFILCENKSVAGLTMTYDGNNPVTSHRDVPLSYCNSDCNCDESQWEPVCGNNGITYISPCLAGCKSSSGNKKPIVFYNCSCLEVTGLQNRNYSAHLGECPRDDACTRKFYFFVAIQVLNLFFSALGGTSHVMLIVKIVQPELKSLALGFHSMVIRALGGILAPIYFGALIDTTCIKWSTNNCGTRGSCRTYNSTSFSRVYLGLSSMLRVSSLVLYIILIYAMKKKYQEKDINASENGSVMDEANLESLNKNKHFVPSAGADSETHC

[2] = biological target: T2, Solute carrier organic anion transporter family member 1B3 (Homo sapiens, UniProt Q9NPD5); conditions: chinese hamster, cho, 10 µM
T2 sequence (Q9NPD5 whole entry): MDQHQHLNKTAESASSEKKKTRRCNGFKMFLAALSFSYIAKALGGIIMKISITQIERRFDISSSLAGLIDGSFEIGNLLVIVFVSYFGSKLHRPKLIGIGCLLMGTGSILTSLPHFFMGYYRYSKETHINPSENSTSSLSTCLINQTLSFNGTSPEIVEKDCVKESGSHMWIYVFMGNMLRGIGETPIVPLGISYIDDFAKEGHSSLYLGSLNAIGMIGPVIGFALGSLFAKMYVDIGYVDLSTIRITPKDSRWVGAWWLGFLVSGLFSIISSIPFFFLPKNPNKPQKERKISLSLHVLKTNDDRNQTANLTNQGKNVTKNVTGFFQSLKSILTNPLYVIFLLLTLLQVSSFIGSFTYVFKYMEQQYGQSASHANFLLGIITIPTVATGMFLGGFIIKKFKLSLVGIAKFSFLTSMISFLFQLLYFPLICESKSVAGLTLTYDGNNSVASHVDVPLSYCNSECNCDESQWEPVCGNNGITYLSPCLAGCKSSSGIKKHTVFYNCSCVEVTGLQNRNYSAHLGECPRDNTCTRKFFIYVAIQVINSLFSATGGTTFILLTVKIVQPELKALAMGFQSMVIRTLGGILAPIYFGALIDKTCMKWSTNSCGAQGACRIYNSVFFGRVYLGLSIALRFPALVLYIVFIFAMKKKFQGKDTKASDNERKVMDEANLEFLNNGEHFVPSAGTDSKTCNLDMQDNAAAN

O=C(NC(Cc1cc(=O)[nH]c2ccccc12)C(=O)O)c1ccc(Cl)cc1 (centres undefined) [REBAMIPIDE]
residual activity [1]: 97.98%
residual activity [2]: 109.2%

COc1ccc(CC(=O)c2ccc(O)cc2O)cc1 [ONONETIN]
residual activity [1]: 149.8%
residual activity [2]: 96.22%

Cc1ccc(-c2nc3ccc(C)cn3c2CC(=O)N(C)C)cc1 [ZOLPIDEM]
residual activity [1]: 177.4%
residual activity [2]: 78.05%

Cc1cc(=O)oc2cc(O)cc(O)c12 [5,7-DIHYDROXY-4-METHYLCOUMARIN]
residual activity [1]: 79.94%
residual activity [2]: 106.7%

CCC(=O)O[C@H]1CC[C@H]2[C@@H]3CCC4=CC(=O)CC[C@]4(C)[C@H]3CC[C@]12C [TESTOSTERONE PROPIONATE]
residual activity [1]: 121%
residual activity [2]: 133.5%

C=C[C@@]1(C)CC(=O)[C@]2(O)[C@@]3(C)[C@@H](O)CCC(C)(C)[C@@H]3[C@H](O)[C@H](OC(C)=O)[C@@]2(C)O1 [COLFORSIN]
residual activity [1]: 118.8%
residual activity [2]: 83.25%

CC1(C)O[C@H]2CC(=O)OC[C@]23[C@H]2CC[C@@]4(C)[C@H](c5ccoc5)OC(=O)[C@H]5O[C@]54[C@]2(C)C(=O)C[C@@H]13 [LIMONIN]
residual activity [1]: 102.2%
residual activity [2]: 92.09%

C/C=C(/C)C(=O)O[C@@H]1c2c(ccc3ccc(=O)oc23)OC(C)(C)[C@@H]1OC(C)=O [PTERYXIN]
residual activity [1]: 84.8%
residual activity [2]: 114.3%

C=C[C@@H](C1=CC(=O)C(OC)=C(OC)C1=O)c1ccccc1 [3,4-DIMETHOXYDALBERGIONE]
residual activity [1]: 215.8%
residual activity [2]: 114.1%

CC1(C)S[C@@H]2[C@H](N3C(=O)[C@@H](c4ccccc4)NC3(C)C)C(=O)N2[C@H]1C(=O)[O-].[K+] [HETACILLIN POTASSIUM]
residual activity [1]: 81.9%
residual activity [2]: 89.09%

C[C@H]1COc2c(N3CCN(C)CC3)c(F)cc3c(=O)c(C(=O)O)cn1c23.C[C@H]1COc2c(N3CCN(C)CC3)c(F)cc3c(=O)c(C(=O)O)cn1c23.O [LEVOFLOXACIN]
residual activity [1]: 117.4%
residual activity [2]: 95.07%

CNC(=O)Oc1ccc2c(c1)[C@]1(C)CCN(C)[C@@H]1N2C.O=C(O)c1ccccc1O [PHYSOSTIGMINE SALICYLATE]
residual activity [1]: 116%
residual activity [2]: 110.8%

CC(C)NC[C@@H](O)COc1cccc2ccccc12.Cl [DEXPROPRANOLOL HYDROCHLORIDE]
residual activity [1]: 108.7%
residual activity [2]: 103.2%

c1ccc(/N=N/c2ccccc2)cc1 [AZOBENZENE]
residual activity [1]: 216.3%
residual activity [2]: 112.1%

Oc1c(I)cc(I)c2cccnc12 [IODOQUINOL]
residual activity [1]: 86.7%
residual activity [2]: 87.46%

Cc1cc(C(C)(C)C)cc(C)c1CC1=NCCN1.Cl [XYLOMETAZOLINE HYDROCHLORIDE]
residual activity [1]: 86.29%
residual activity [2]: 99.17%

Cc1cccc(C(=O)O)c1O [HYDROXYTOLUIC ACID]
residual activity [1]: 125.2%
residual activity [2]: 110.2%

O=[N+]([O-])NC1=NCCN1Cc1ccc(Cl)nc1 [IMIDACLOPRID]
residual activity [1]: 73.94%
residual activity [2]: 90.03%

C[C@H]1[C@H]2CC[C@H]3[C@@H]4CC=C5C[C@@H](N(C)C)CC[C@]5(C)[C@H]4CC[C@]23CN1C [CONESSINE]
residual activity [1]: 100.9%
residual activity [2]: 111.5%

ClC1=C(Cl)C2(Cl)C3C4CC(C5OC45)C3C1(Cl)C2(Cl)Cl (centres undefined) [ENDRIN]
residual activity [1]: 107.3%
residual activity [2]: 121%

COc1ccc(-c2coc3cc(O)ccc3c2=O)c(OC)c1 [2'-METHOXYFORMONETIN]
residual activity [1]: 74.56%
residual activity [2]: 83.66%

CCCCOc1ccc(C(=O)CCN2CCCCC2)cc1.Cl [DYCLONINE HYDROCHLORIDE]
residual activity [1]: 170.9%
residual activity [2]: 83.62%

CC(C)N1C(=O)c2ccccc2NS1(=O)=O [BENTAZON]
residual activity [1]: 109.9%
residual activity [2]: 96.3%

C[N+](C)(C)CCOP(=O)(O)OP(=O)([O-])OC[C@H]1O[C@@H](n2ccc(N)nc2=O)[C@H](O)[C@@H]1O [CITICOLINE]
residual activity [1]: 81.06%
residual activity [2]: 69.94%

CC1(C)O[C@@H]2C[C@H]3[C@@H]4CCC5=CC(=O)CC[C@]5(C)[C@@]4(F)[C@@H](O)C[C@]3(C)[C@]2(C(=O)CCl)O1 [HALCINONIDE]
residual activity [1]: 88.26%
residual activity [2]: 103.5%

CC1(C)C=Cc2c(cc3occ(-c4ccc5c(c4)OCO5)c(=O)c3c2O)O1 [ROBUSTONE]
residual activity [1]: 102.3%
residual activity [2]: 96.96%

C[N+](C)(C)CCCCCC[N+](C)(C)C.[Br-].[Br-] [HEXAMETHONIUM BROMIDE]
residual activity [1]: 76.07%
residual activity [2]: 77.59%

S=C=NCc1ccccc1 [BENZYL ISOTHIOCYANATE]
residual activity [1]: 170.7%
residual activity [2]: 101.9%

CC[C@@H]1C(=O)OC[C@@H]1Cc1cncn1C.O=[N+]([O-])O [PILOCARPINE NITRATE]
residual activity [1]: 82.84%
residual activity [2]: 95.87%

Cl.O=C1NCC2(CCN(CCc3ccccc3)CC2)O1 [FENSPIRIDE HYDROCHLORIDE]
residual activity [1]: 107.4%
residual activity [2]: 93.02%

Nc1nc2ncc(CNc3ccc(C(=O)N[C@@H](CCC(=O)O)C(=O)O)cc3)nc2c(=O)[nH]1 [FOLIC ACID]
residual activity [1]: 98.4%
residual activity [2]: 109.7%

CC(C)CC(NC(=O)C(C)N)C(=O)O (racemic) [ALANYL-dl-LEUCINE]
residual activity [1]: 111.6%
residual activity [2]: 98.55%

COC1=C(OC)C(=O)C(C/C=C(\C)CC/C=C(\C)CC/C=C(\C)CC/C=C(\C)CC/C=C(\C)CC/C=C(\C)CC/C=C(\C)CC/C=C(\C)CC/C=C(\C)CCC=C(C)C)=C(C)C1=O [UBIDECARENONE]
residual activity [1]: 118.6%
residual activity [2]: 137.7%

CCn1cc(C(=O)O)c(=O)c2cc3c(cc21)OCO3 [OXOLINIC ACID]
residual activity [1]: 55.65%
residual activity [2]: 87.39%

COc1ccnc(C[S+]([O-])c2nc3ccc(OC(F)F)cc3[nH]2)c1OC (centres undefined) [PANTOPRAZOLE]
residual activity [1]: 81.37%
residual activity [2]: 79.12%

CC[C@H](CC[C@@H](C)[C@H]1CC[C@H]2[C@@H]3CC=C4C[C@@H](OC(C)=O)CC[C@]4(C)[C@H]3CC[C@]12C)C(C)C [SITOSTERYL ACETATE]
residual activity [1]: 97.72%
residual activity [2]: 83.78%

CC(C)[C@H]1CC[C@H](C(=O)N[C@H](Cc2ccccc2)C(=O)O)CC1 [NATEGLINIDE]
residual activity [1]: 99.81%
residual activity [2]: 70.33%

Cc1cc(O)c(C=O)c(O)c1C(=O)O [HAEMATOMMIC ACID]
residual activity [1]: 54.98%
residual activity [2]: 81.5%

Oc1cc2c(cc1O)[C@@H]1c3ccc(O)c(O)c3OC[C@]1(O)C2 [HEMATOXYLIN]
residual activity [1]: 88.87%
residual activity [2]: 91.69%

C[C@]12C=CC(=O)C=C1CC[C@@H]1[C@@H]2CC[C@]2(C)C(=O)CC[C@@H]12 [ANDROSTENEDONE]
residual activity [1]: 128.1%
residual activity [2]: 104%

CCCc1ncc(C[n+]2ccccc2C)c(N)n1 [AMPROLIUM ION]
residual activity [1]: 67.38%
residual activity [2]: 78.02%

COc1ccc(OC)c(C(O)CNC(=O)CN)c1.Cl (centres undefined) [MIDODRINE HYDROCHLORIDE]
residual activity [1]: 101.7%
residual activity [2]: 88.99%
